In patent publication US20190008804A1 (Repros Therapeutics Inc., priority 2016, published 2019):
Like-named read-outs stand apart in the source and are kept apart here.

Columns and labels:
ERβ [1] = biological target: T1, ERβ (Homo sapiens, UniProt Q92731); experiment: ERβ coactivator response; type: biochemical; parameters: concentration or dose not given beside the values
Target sequence in this assay (Q92731 whole entry): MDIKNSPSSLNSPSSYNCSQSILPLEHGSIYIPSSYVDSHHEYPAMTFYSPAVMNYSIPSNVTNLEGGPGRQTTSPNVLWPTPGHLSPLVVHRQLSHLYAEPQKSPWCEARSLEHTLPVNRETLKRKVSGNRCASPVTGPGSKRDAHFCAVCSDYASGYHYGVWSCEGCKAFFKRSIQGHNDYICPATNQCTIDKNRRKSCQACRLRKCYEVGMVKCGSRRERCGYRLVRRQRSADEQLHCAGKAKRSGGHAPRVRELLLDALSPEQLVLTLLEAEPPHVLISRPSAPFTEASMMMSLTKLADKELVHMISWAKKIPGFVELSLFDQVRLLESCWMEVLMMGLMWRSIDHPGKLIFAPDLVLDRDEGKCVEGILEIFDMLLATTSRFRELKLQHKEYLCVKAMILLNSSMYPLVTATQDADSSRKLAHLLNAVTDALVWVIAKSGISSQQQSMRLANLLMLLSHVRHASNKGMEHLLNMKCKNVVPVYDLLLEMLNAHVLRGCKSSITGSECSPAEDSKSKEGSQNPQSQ

ERβ [2] = biological target: T1, ERβ; experiment: Estrogen ERβ competitive radioligand binding with [3H]estradiol; parameters: made in house; host or cells: insect Sf9 cells
Experimental: IC50 values were determined by non-linear least squares regression analysis. […] The Hill coefficient (nH) defines the slope of the competitive binding curve and was determined using MathIQ™ (ID Business Solutions Ltd., UK).
Estrogen ERβ • Source: Human recombinant insect Sf9 cells
Target sequence in this assay (Q92731 264-498 limits assumed): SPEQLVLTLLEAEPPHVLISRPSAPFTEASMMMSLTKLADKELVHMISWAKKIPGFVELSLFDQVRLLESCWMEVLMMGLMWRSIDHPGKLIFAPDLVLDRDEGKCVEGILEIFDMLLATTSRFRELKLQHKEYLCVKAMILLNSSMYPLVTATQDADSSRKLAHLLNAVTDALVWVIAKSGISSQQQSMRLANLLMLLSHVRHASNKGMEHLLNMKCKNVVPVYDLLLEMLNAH

[3] = Bone calcium in female pigs after 180 days daily oral dosing; type: in vivo
Experimental: Active agents or placebo were administered after heat (estrus) in the luteal phase. […] All treatment groups received daily oral administration of the appropriate capsule(s) for 180 days. Daily general health observations and weekly body weight measurements were conducted for all groups. Following the 6 month administration period, calcium (parts per million (ppm) dry weight (dw)) was determined in rib and femur bone samples from pigs in each treatment group: […]

[4] = Co-administration of Proellex and Androxal in cycling female baboons, 180 days daily oral; type: in vivo; conditions: daily oral 180 days, Androxal 25 mg
Experimental: All treatment groups received daily oral administration of the appropriate capsule(s) for 180 days. Daily oral dosing was started in the luteal phase. […] Daily observations of estrus (heat) were conducted for all groups.

ERβ [5] = biological target: T1, ERβ; conditions: reference compound, Estrogen ERβ; cited from earlier work
Target sequence in this assay (Q92731 264-498 limits assumed): as above

[6] = third of three separate radioligand binding studies, read-out: Receptor Binding ERβ IC50

CCNCCOc1ccc(/C(=C(/Cl)c2ccccc2)c2ccc(O)cc2)cc1 [4-OH-N-Desethyl enclomiphene, (E)-4-OH-desethyl Clomiphene]
ERβ Coactivator Response Ant (antagonist) (ERβ [1]; second of two separate studies): 104%
IC50 (ERβ [2]; [6]): 0.45 nM

NCCOc1ccc(/C(=C(/Cl)c2ccccc2)c2ccccc2)cc1 [Di-de-ethyl-enclomiphene, (E)-di-desethyl Clomiphene]
ERβ Coactivator Response Ant (antagonist) (ERβ [1]; first of two separate studies): 87%

COCC(=O)[C@@]1(OC(C)=O)CC[C@H]2[C@@H]3CCC4=CC(=O)CCC4=C3[C@@H](c3ccc(N(C)C)cc3)C[C@@]21C [Proellex, 21-methoxy-17α-acetoxy-11β-(4 N, N-dimethylaminophenyl)-19-norpregna-4,9-diene-3,20-dione]
effect on calcium content of bone ([3]; pig, in vivo, po): did not affect the calcium content of bone
cycling of vaginal bleeding ([4]; Proellex 12 mg): stopped
endometrial thickness ([4]; Proellex 12 mg): increase in endometrial thickness
swelling (turgesence) of the tissue around the tail under the control of estrogen ([4]; Proellex 12 mg): not proellex alone inhibited the swelling

CCNCCOc1ccc(/C(=C(/Cl)c2ccccc2)c2ccccc2)cc1 [N-Desethyl enclomiphene, (E)-desethyl Clomiphene]
ERβ Coactivator Response Ant (antagonist) (ERβ [1]; second of two separate studies): 74%
IC50 (ERβ [2]; [6]): 1.13 nM

CC[N+]([O-])(CC)CCOc1ccc(/C(=C(/Cl)c2ccccc2)c2ccccc2)cc1 [Enclomiphene-NO, (E)-Clomiphene-NO]
ERβ Coactivator Response Ant (antagonist) (ERβ [1]; first of two separate studies): 95%

CCN(CC)CCOc1ccc(/C(=C(/Cl)c2ccccc2)c2ccccc2)cc1 [Enclomiphene, trans-clomiphene]
ERβ Coactivator Response Ant (antagonist) (ERβ [1]; first of two separate studies): 65%
effect on calcium content of bone ([3]; female pigs, daily oral 180 days): did not affect the calcium content of bone
Ca (ppm dw), Mean ([3]; rib and femur bone samples, female pigs n = 3, daily oral 180 days, Proellex 12 mg, Androxal 25 mg): 139300.00 ppm dw
cycling [4]: prevented cycling
cycling of vaginal bleeding ([4]; Proellex 12 mg): stopped
swelling (turgesence) of the tissue around the tail under the control of estrogen ([4]; Proellex 12 mg): inhibited the swelling

CC/C(=C(/CC)c1ccc(O)cc1)c1ccc(O)cc1 [Diethylstilbestrol]
Historical nH (ERβ [5]): 1.20

CCN(CC)CCOc1ccc(/C(=C(/Cl)c2ccccc2)c2ccc(O)cc2)cc1 [4-OH-enclomiphene, (E)-4-OH-Clomiphene]
ERβ Coactivator Response Ant (antagonist) (ERβ [1]; first of two separate studies): 60%
nH (Hill coefficient) (ERβ [2]; ERβ, hum): 1.56
% Inh. (ERβ [2]; ERβ, hum, Conc. 0.9 nM): 67%
Ki (ERβ [2]; ERβ, hum, Cheng-Prusoff): 0.12 nM
IC50 (ERβ [2]; ERβ, hum, additional data, read-out: IC50): 0.57 nM
ligand preference ERα versus ERβ (ERβ [2]; based on binding and co-activator studies): better ligand for ERβ
IC50 (ERβ [2]; first of three separate radioligand binding studies, read-out: Receptor Binding ERβ IC50): 0.57 nM
IC50 (ERβ [2]; second of three separate radioligand binding studies, read-out: Receptor Binding ERβ IC50): 0.41 nM
